What was measured:
[1] = tested on: mRNA transcript for the firefly (Photinus pyralis) luciferase gene; test: Mouse in vivo evaluation of efficacy (luciferase mouse model, liver luminescence by IVIS imaging); details: LSL-Luc transgenic mice, Luc siRNA RDVs tail vein injected, 0.3 to 3 mg/kg siRNA, imaged 48 hours post dose; compared with RDV containing octyl-CLinDMA (OCD); FIG. 1
Description: LNPs utilizing Compounds 1-2, in the nominal compositions described immediately above, were evaluated for in vivo efficacy and induction of inflammatory cytokines in a luciferase mouse model. The siRNA targets the mRNA transcript for the firefly (Photinus pyralis) luciferase gene (Accession #M15077). […] The in vivo luciferase model employs a transgenic mouse in which the firefly luciferase coding sequence is present in all cells. ROSA26-LoxP-Stop-LoxP-Luc (LSL-Luc) transgenic mice licensed from the Dana Farber Cancer Institute are induced to express the Luciferase gene by first removing the LSL sequence with a recombinant Ad-Cre virus (Vector Biolabs). Due to the organo-tropic nature of the virus, expression is limited to the liver when delivered via tail vein injection. Luciferase expression levels in liver are quantitated by measuring light output, using an IVIS imager (Xenogen) following administration of the luciferin substrate (Caliper Life Sciences). Pre-dose luminescence levels are measured prior to administration of the RDVs. Luciferin in PBS (15 mg/mL) is intraperitoneally (IP) injected in a volume of 150 μL. […] In vivo efficacy results are expressed as % inhibition of luminescence relative to pre-dose luminescence levels. Plasma cytokine levels were determined using the SearchLight multiplexed cytokine chemiluminescent array (Pierce/Thermo). […]

[2] = tested on: mRNA transcript for the ApoB gene; test: Rat in vivo evaluation of efficacy (liver ApoB mRNA by quantitative RT-PCR); details: Sprague-Dawley female rats, ApoB siRNA RDV tail vein injected, necropsy 24 hours after dosing; compared with RDV containing octyl-CLinDMA; FIG. 2
Description: (§1) Six hours post dose, food is removed from the cages. Animal necropsy is performed 24 hours after LNP dosing. Rats are anesthetized under isoflurane for 5 minutes, then maintained under anesthesia by placing them in nose cones continuing the delivery of isoflurane until ex-sanguination is completed. Blood is collected from the vena cava using a 23 gauge butterfly venipuncture set and aliquoted to serum separator vacutainers for serum chemistry analysis. Punches of the excised caudate liver lobe are taken and placed in RNALater (Ambion) for mRNA analysis. Preserved liver tissue was homogenized and total RNA isolated using a Qiagen bead mill and the Qiagen miRNA-Easy RNA isolation kit following the manufacturer's instructions. Liver ApoB mRNA levels were determined by quantitative RT-PCR. Message was amplified from purified RNA utilizing a rat ApoB commercial probe set (Applied Biosystems Cat # RN01499054_m1). The PCR reaction was performed on an ABI 7500 instrument with a 96-well Fast Block. The ApoB mRNA level is normalized to the housekeeping PPIB (NM 011149) mRNA. PPIB mRNA levels were determined by RT-PCR using a commercial probe set (Applied Biosystems Cat. No. Mm00478295_m1). Results are expressed as a ratio of ApoB mRNA/PPIB mRNA. All mRNA data is expressed relative to the PBS control dose. […]

[3] = Rat in vivo toxicity (serum ALT and AST); details: Sprague-Dawley female rats, serum 24 hours after LNP dosing; compared with RDV containing octyl-CLinDMA; FIG. 3
Description: as §1

With CCCCC/C=C\C/C=C\CCCCCCCCOC[C@H](COCCCCCCCC)N(C)C [Compound 1, S-N,N-dimethyl-1-[(9Z,12Z)-octadeca-9,12-dien-1-yloxy]-3-(octyloxy)propan-2-amine] the “In vivo efficacy, % inhibition of luminescence relative to pre-dose luminescence levels” value [1] was “Greater efficacy”, the “In vivo efficacy, liver ApoB mRNA/PPIB mRNA relative to the PBS control dose” value [2] was “Greater efficacy” and the “Elevations in LFTs (ALT/AST)” value [3] was “lower elevations in LFTs (ALT/AST)”.

— patent US9643916B2, “Low molecular weight cationic lipids for oligonucleotide delivery” (SIRNA THERAPEUTICS, INC., priority 2010, dated 2017)
